Data: patent US20260022096A1, “NOVEL SULFONAMIDES AND THEIR USE AS NEUROPROTECTIVE AND/OR NEURORESTORATIVE AGENTS” (GENECODE, priority 2022, published 2026)

Molecular target: T1, GFRα1-RET (Homo sapiens, UniProt P56159)
T1 construct: expressed in transfected cells; host or cells: MG87 murine fibroblasts, stably transfected
T1 sequence (P56159 25-429 limits assumed): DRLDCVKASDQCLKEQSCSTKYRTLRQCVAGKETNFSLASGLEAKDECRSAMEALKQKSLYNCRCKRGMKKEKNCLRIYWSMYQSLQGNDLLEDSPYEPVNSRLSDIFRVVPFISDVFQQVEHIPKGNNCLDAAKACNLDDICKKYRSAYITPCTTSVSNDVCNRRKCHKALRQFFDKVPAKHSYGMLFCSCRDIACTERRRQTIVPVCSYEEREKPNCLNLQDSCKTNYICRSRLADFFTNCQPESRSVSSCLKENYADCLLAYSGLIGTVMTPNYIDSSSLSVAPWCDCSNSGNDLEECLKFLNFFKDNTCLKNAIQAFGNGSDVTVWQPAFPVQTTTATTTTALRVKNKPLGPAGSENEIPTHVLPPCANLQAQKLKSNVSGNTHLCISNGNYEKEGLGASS
Test: Elk1 reporter-gene (luciferase) assay in cells expressing GFRα1-RET
Type: cell-based
Conditions: MG87 murine fibroblasts stably transfected with PathDetect Elk-1, GFRα1 and RET, 6 concentrations, agonist/activator activity
Protocol: For ECso determination, a dose-response test was performed using 6 concentrations of each tested compound. Dose-response curves were fitted using the sigmoidal dose-response (variable slope) analysis in GraphPad Prism program (Graph Pad Inc) and ECso of agonist/activator activity was calculated. Dose-response experiments were all performed in duplicate, two times independently.

Structure (SMILES)	EC50
O=C(c1ccc(F)cc1Cl)N1C[C@H]2CC[C@@H](C1)N2c1cc(S(=O)(=O)N2CCC(c3ccc(F)cc3)CC2)cc(Cl)c1O [compound 099, (2-chloro-4-fluoro-phenyl)-[(1S,5R)-8-[3-chloro-5-[[4-(4-fluorophenyl)-1-piperidyl]sulfonyl]-2-hydroxy-phenyl]-3,8-diazabicyclo[3.2.1]octan-3-yl]methanone]	< 1000 nM
CC(C)NS(=O)(=O)c1cc(Cl)c(O)c(N2[C@@H]3CC[C@H]2CN(C(=O)c2ccc(F)cc2Cl)C3)c1 [compound 100]	< 1000 nM
CC1(NS(=O)(=O)c2cc(Cl)c(O)c(N3[C@@H]4CC[C@H]3CN(C(=O)c3ccc(F)cc3Cl)C4)c2)CC1 [compound 101, 3-chloro-5-[(1S,5R)-3-(2-chloro-4-fluoro-benzoyl)-3,8-diazabicyclo[3.2.1]octan-8-yl]-4-hydroxy-N-(1-methylcyclopropyl) benzenesulfonamide]	1000 to 10000 nM
CC1(NS(=O)(=O)c2cc(Cl)c(O)c(N3[C@@H]4CC[C@H]3CN(C(=O)c3ccc(F)cc3Cl)C4)c2)CCC1 [compound 102, 3-chloro-5-[(1S,5R)-3-(2-chloro-4-fluoro-benzoyl)-3,8-diazabicyclo[3.2.1]octan-8-yl]-4-hydroxy-N-(1-methylcyclobutyl) benzenesulfonamide]	< 1000 nM
CC(C)(C#N)NS(=O)(=O)c1cc(Cl)c(O)c(N2[C@@H]3CC[C@H]2CN(C(=O)c2ccc(F)cc2Cl)C3)c1 [compound 103]	1000 to 10000 nM
CC(C)(NS(=O)(=O)c1cc(Cl)c(O)c(N2[C@@H]3CC[C@H]2CN(C(=O)c2ccc(F)cc2Cl)C3)c1)C(F)(F)F [compound 105, 3-chloro-5-[(1S,5R)-3-(2-chloro-4-fluoro-benzoyl)-3,8-diazabicyclo[3.2.1]octan-8-yl]-4-hydroxy-N-(2,2,2-trifluoro-1,1-dimethyl-ethyl)benzenesulfonamide]	< 1000 nM
CN(C1(C)COC1)S(=O)(=O)c1cc(Cl)c(O)c(N2[C@@H]3CC[C@H]2CN(C(=O)c2ccc(F)cc2Cl)C3)c1 [compound 106, 3-chloro-5-[(1S,5R)-3-(2-chloro-4-fluoro-benzoyl)-3,8-diazabicyclo[3.2.1]octan-8-yl]-4-hydroxy-N-methyl-N-(3-methyloxetan-3-yl)benzenesulfonamide]	< 1000 nM
CN(C(C)(C)C)S(=O)(=O)c1cc(Cl)c(O)c(N2[C@@H]3CC[C@H]2CN(C(=O)c2ccc(F)cc2Cl)C3)c1 [compound 107]	< 1000 nM
CC1(NS(=O)(=O)c2cc(Cl)c(O)c(N3[C@@H]4CC[C@H]3CN(C(=O)c3ccc(F)cc3Cl)C4)c2)COC1 [compound 108]	1000 to 10000 nM
CN(C1COC1)S(=O)(=O)c1cc(Cl)c(O)c(N2[C@@H]3CC[C@H]2CN(C(=O)c2ccc(F)cc2Cl)C3)c1 [compound 109, 3-chloro-5-[(1S,5R)-3-(2-chloro-4-fluoro-benzoyl)-3,8-diazabicyclo[3.2.1]octan-8-yl]-4-hydroxy-N-methyl-N-(oxetan-3-yl)benzenesulfonamide]	1000 to 10000 nM
C[C@H]1CN(C(=O)c2ccc(F)cc2Cl)CCN1c1cc(S(=O)(=O)NC(C)(C)C)cc(Cl)c1O [compound 110, N-tert-butyl-3-chloro-5-[(2S)-4-(2-chloro-4-fluoro-benzoyl)-2-methyl-piperazin-1-yl]-4-hydroxy-benzenesulfonamide]	< 1000 nM
C[C@@H]1CN(C(=O)c2ccc(F)cc2Cl)CCN1c1cc(S(=O)(=O)NC(C)(C)C)cc(Cl)c1O [compound 111, N-tert-butyl-3-chloro-5-[(2R)-4-(2-chloro-4-fluoro-benzoyl)-2-methyl-piperazin-1-yl]-4-hydroxy-benzenesulfonamide]	< 1000 nM
CC(C)(C)NS(=O)(=O)c1cc(Cl)c(OCCO)c(N2[C@@H]3CC[C@H]2CN(C(=O)c2ccc(F)cc2Cl)C3)c1 [compound 112]	< 1000 nM
COCCOc1c(Cl)cc(S(=O)(=O)NC(C)(C)C)cc1N1[C@@H]2CC[C@H]1CN(C(=O)c1ccc(F)cc1Cl)C2 [compound 113]	< 1000 nM
COc1c(Cl)cc(S(=O)(=O)NC(C)(C)C)cc1N1[C@@H]2CC[C@H]1CN(C(=O)c1ccc(F)cc1Cl)C2 [compound 114, N-tert-butyl-3-chloro-5-[(1S,5R)-3-(2-chloro-4-fluoro-benzoyl)-3,8-diazabicyclo[3.2.1]octan-8-yl]-4-methoxy-benzenesulfonamide]	< 1000 nM
CCCN(C)S(=O)(=O)c1ccc(Cl)c(N2[C@@H]3CC[C@H]2CN(C(=O)c2ccc(F)cc2Cl)C3)c1 [compound 115, 4-chloro-3-[(1S,5R)-3-(2-chloro-4-fluoro-benzoyl)-3,8-diazabicyclo[3.2.1]octan-8-yl]-N-methyl-N-propyl-benzenesulfonamide]	< 1000 nM
Cc1ccc(S(=O)(=O)N2CCN(CCc3ccc(F)cc3)CC2)cc1N1[C@@H]2CC[C@H]1CN(C(=O)c1ccc(F)cc1Cl)C2 [compound 116, (2-chloro-4-fluoro-phenyl)-[(1S,5R)-8-[5-[4-[2-(4-fluorophenyl)ethyl]piperazin-1-yl]sulfonyl-2-methyl-phenyl]-3,8-diazabicyclo[3.2.1]octan-3-yl]methanone]	< 1000 nM
O=C(c1ccc(F)cc1Cl)N1C[C@H]2CC[C@@H](C1)N2c1cc(S(=O)(=O)N2CCC(c3ccccc3)CC2)cc2c1OCO2 [compound 117, (2-chloro-4-fluoro-phenyl)-[(1S,5R)-8-[6-[(4-phenyl-1-piperidyl)sulfonyl]-1,3-benzodioxol-4-yl]-3,8-diazabicyclo[3.2.1]octan-3-yl]methanone]	< 1000 nM
O=C(c1ccc(F)cc1Cl)N1C[C@H]2CC[C@@H](C1)N2c1cc(S(=O)(=O)N2CCC(c3ccccc3)CC2)cc2c1OCCO2 [compound 118, (2-chloro-4-fluoro-phenyl)-[(1S,5R)-8-[7-[(4-phenyl-1-piperidyl)sulfonyl]-2,3-dihydro-1,4-benzodioxin-5-yl]-3,8-diazabicyclo[3.2.1]octan-3-yl]methanone]	< 1000 nM
CN1CCc2cc(S(=O)(=O)N3CCC(c4ccccc4)CC3)cc(N3[C@@H]4CC[C@H]3CN(C(=O)c3ccc(F)cc3Cl)C4)c21 [compound 119, (2-chloro-4-fluoro-phenyl)-[(1S,5R)-8-[1-methyl-5-[(4-phenyl-1-piperidyl)sulfonyl]indolin-7-yl]-3,8-diazabicyclo[3.2.1]octan-3-yl]methanone]	< 1000 nM
CN1CCc2cc(S(=O)(=O)N3CCC(c4ccccc4)CC3)cc(N3[C@@H]4CC[C@H]3CN(C(=O)c3cc(F)c(F)cc3Cl)C4)c21 [compound 120, (2-chloro-4,5-difluoro-phenyl)-[(1S,5R)-8-[1-methyl-5-[(4-phenyl-1-piperidyl)sulfonyl]indolin-7-yl]-3,8-diazabicyclo[3.2.1]octan-3-yl]methanone]	< 1000 nM
CN(C)c1ccc(S(=O)(=O)N2CCC(c3ccccc3)CC2)cc1N1[C@@H]2CC[C@H]1CN(C(=O)c1ccc(F)cc1Cl)C2 [compound 121, (2-chloro-4-fluoro-phenyl)-[(1S,5R)-8-[2-(dimethylamino)-5-[(4-phenyl-1-piperidyl)sulfonyl]phenyl]-3,8-diazabicyclo[3.2.1]octan-3-yl]methanone]	< 1000 nM
CN(C)c1ccc(S(=O)(=O)N2CCC(c3ccccc3)CC2)cc1N1[C@@H]2CC[C@H]1CN(C(=O)c1cc(F)c(F)cc1Cl)C2 [compound 122, (2-chloro-4,5-difluoro-phenyl)-[(1S,5R)-8-[2-(dimethylamino)-5-[(4-phenyl-1-piperidyl)sulfonyl]phenyl]-3,8-diazabicyclo[3.2.1]octan-3-yl]methanone]	< 1000 nM
CNC1CN(c2ccc(S(=O)(=O)N3CCC(c4ccccc4)CC3)cc2N2[C@@H]3CC[C@H]2CN(C(=O)c2ccc(F)cc2Cl)C3)C1 [compound 123, (2-chloro-4-fluoro-phenyl)-[(1S,5R)-8-[2-[3-(methylamino)azetidin-1-yl]-5-[(4-phenyl-1-piperidyl)sulfonyl]phenyl]-3,8-diazabicyclo[3.2.1]octan-3-yl]methanone]	< 1000 nM
Cc1c(O)cc(S(=O)(=O)N2CCC(c3ccccc3)CC2)cc1N1[C@@H]2CC[C@H]1CN(C(=O)c1ccc(F)cc1Cl)C2 [compound 124, (2-chloro-4-fluoro-phenyl)-[(1S,5R)-8-[3-hydroxy-2-methyl-5-[(4-phenyl-1-piperidyl)sulfonyl]phenyl]-3,8-diazabicyclo[3.2.1]octan-3-yl]methanone]	< 1000 nM
N#Cc1ccc(S(=O)(=O)N2CCC(c3ccccc3)CC2)cc1N1[C@@H]2CC[C@H]1CN(C(=O)c1ccc(F)cc1Cl)C2 [compound 125]	< 1000 nM
COc1ccc(S(=O)(=O)NC(C)(C)C)cc1N1[C@@H]2CC[C@H]1CN(C(=O)c1cc(F)c(F)cc1Cl)C2 [compound 129, N-tert-butyl-3-[(1S,5R)-3-(2-chloro-4,5-difluoro-benzoyl)-3,8-diazabicyclo[3.2.1]octan-8-yl]-4-methoxy-benzenesulfonamide]	< 1000 nM
O=C(c1ccc(F)cc1Cl)N1C[C@H]2CC[C@@H](C1)N2c1cc(S(=O)(=O)N2CCC(F)CC2)cc2c1OCC2 [compound 130, (2-chloro-4-fluoro-phenyl)-[(1S,5R)-8-[5-[(4-fluoro-1-piperidyl)sulfonyl]-2,3-dihydrobenzofuran-7-yl]-3,8-diazabicyclo[3.2.1]octan-3-yl]methanone]	< 1000 nM
